In patent US9149519B2, “Chimeric human immunodeficiency virus type 1 (HIV-1) with enhanced dendritic cell and macrophage tropism comprising the simian immunodeficiency virus (SIV) minimal Vpx packaging domain” (New York University, priority 2012, dated 2015):

Experiments:
[1] = tested on: IFN-β mRNA; assay: IFN-β mRNA induction in infected MDDC by qRT-PCR; format: cell-based, human; conditions: AZT 25 μM or Raltegravir 10 μM added prior to infection
[2] = tested on: resting CD4+ T cells; conditions: Siliciano et al. 2012; cited from earlier work
[3] = tested on: MDM; format: cell-based, human
[4] = tested on: MDM and MDDC; assay: Infectivity on MDM and MDDC (summary statements); format: cell-based, human; conditions: accessory protein provided in trans
[5] = tested on: MDDC; format: cell-based, human

Cc1cn([C@H]2C[C@H](N=[N+]=[N-])[C@@H](CO)O2)c(=O)[nH]c1=O [AZT]
Effect on IFN-β induction by Vpx-containing p6 chimeric virus [1]: blocked

Cc1nnc(C(=O)NC(C)(C)c2nc(C(=O)NCc3ccc(F)cc3)c(O)c(=O)n2C)o1 [Raltegravir]
Effect on IFN-β induction by Vpx-containing p6 chimeric virus [1]: blocked

O=C(CCCCCCC(=O)Nc1ccccc1)NO [SAHA, suberoylanilide hydroxamic acid]
Virus reactivation [2]: induced virus reactivation from resting CD4+ T cells

HIV-2rod Vpx: HIV-2 Vpx accessory protein from codon-optimized expression vector
Effect of packaged accessory protein on infectivity of the p6 chimeric virus [3]: enhanced the infectivity of the p6 chimeric virus on MDM
Enhancement of MDM and MDDC infection [4]: only slightly enhanced MDM and MDDC infection
Activity relative to SIVmac239 Vpx [5]: about 8%
Effect of packaged accessory protein on infectivity of the p6 chimeric virus [5]: enhanced the infectivity of the p6 chimeric virus

B1: SIVagm Vpr: SIVagm protein termed Vpr but more similar to Vpx (protein)
chain: MAEGRDSRERRPGWLEIWDLSREPWDEGLRDMVAELNQEAQRHFGRELLFQVWNFCQEEGERNGAPMIERAYRYYRLVQKALFVHFRCGCRRRTPFEPYEERRNGVGGGRDGREPPPGLA
modifications: Simian immunodeficiency virus
notes: SIVagm protein termed Vpr but more similar to Vpx
Effect of packaged accessory protein on infectivity of the p6 chimeric virus [3]: had no detectable effect
Enhancement of MDM and MDDC infection [4]: did not enhance the infection
Effect of packaged accessory protein on infectivity of the p6 chimeric virus [5]: had no detectable effect

B2: SIVmac239 Vpx: lentiviral accessory protein, codon-optimized expression vector, SEQ ID NO: 85 (protein)
chain: MSDPRERIPPGNSGEETIGEAFEWLNRTVEEINREAVNHLPRELIFQVWQRSWEYWHDEQGMSPSYVKYRYLCLIQKALFMHCKKGCRCLGEGHGAGGWRPGPPPPPPPGLA
modifications: Simian immunodeficiency virus
Effect of packaged accessory protein on infectivity of the p6 chimeric virus [3]: enhanced the infectivity of the p6 chimeric virus on MDM
Effect of packaged accessory protein on infectivity of the p6 chimeric virus [5]: enhanced the infectivity of the p6 chimeric virus
